According to patent publication US20260232666A1, “COMPOSITIONS AND METHODS FOR INHIBITION OF RAS” (TheRas, Inc., priority 2023, published 2026):

What was measured:
[1] = molecular target: T1, GppNHp-loaded KRAS4b (amino acids 1-169) G12C/C118S protein (Homo sapiens, UniProt P01116, C118S/G12C); test: Covalent cysteine 12 modification by MALDI-TOF MS, GppNHp-loaded KRAS G12C; type: binding; conditions: 15 minutes reaction time point
T1 construct: KRAS4b (amino acids 1-169) G12C/C118S protein; made in house
Summary of the method: (§1)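 1 μM GppNHp-, GTP- or GDP-loaded KRAS4b (1-169) G12C/C118S in 20 mM HEPES, 150 mM NaCl, 1 mM MgCl2, pH 7.3, at 1:2.5 protein:compound, room temperature in the dark. Percent Cys12 modification from MALDI-TOF peak heights (adduct/total protein), reported at 15 min.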

[2] = molecular target: T2, GTP-loaded KRAS4b (amino acids 1-169) G12C/C118S protein (Homo sapiens, UniProt P01116, C118S/G12C); test: Covalent cysteine 12 modification by MALDI-TOF MS, GTP-loaded KRAS G12C; type: binding; conditions: 15 minutes reaction time point
T2 construct: KRAS4b (amino acids 1-169) G12C/C118S protein; made in house
Summary of the method: as §1

[3] = molecular target: T3, GDP-loaded KRAS4b (amino acids 1-169) G12C/C118S protein (Homo sapiens, UniProt P01116, C118S/G12C); test: Covalent cysteine 12 modification by MALDI-TOF MS, GDP-loaded KRAS G12C; type: binding; conditions: 15 minutes reaction time point
T3 construct: KRAS4b (amino acids 1-169) G12C/C118S protein; made in house
Summary of the method: as §1

pERK in NCI-H358 cells = test: Cell-based pERK HTRF assay (pERK inhibition in H358 cells); conditions: 30 min incubation
Summary of the method: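 NCI-H358 cells were seeded at 4×10^4 cells/well in RPMI/10% FBS, then treated next day for 30 min at 0.25% DMSO (9-point, 3-fold series from 75 μM). Lysates were read by HTRF (d2/Eu cryptate antibody pair, 615 nm emission) after 4–24 h at room temperature to give pERK IC50.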

SMILES | GppNHp-KRAS G12C percent of modification [1] | GTP-KRAS G12C percent of modification [2] | GDP-KRAS G12C percent of modification [3] | IC50 (pERK in NCI-H358 cells; Homo sapiens, NCI-H358, 0.5 h) [nM] | IC50 (pERK in NCI-H358 cells) [nM]
C=CC(=O)N1C2CC1CN(c1nc(OC[C@@]34CCCN3C[C@H](F)C4)nc3c(F)c(-c4ccc(F)c5sc(N)c(C#N)c45)c(C(F)(F)F)cc13)C2 [Compound 35] | C (10%≤percent of modification <50%) | C (10%≤percent of modification <50%) | A (percent of modification ≥70%) | < 100 | –
C=CC(=O)N1C[C@H](N(C)c2nc(OC[C@@H]3CCCN3C)nc3c(F)c(-c4ccc(F)c5sc(N)c(C#N)c45)c(C(F)(F)F)cc23)C[C@H]1C [Compound 147] | A (percent of modification ≥70%) | A (percent of modification ≥70%) | A (percent of modification ≥70%) | < 100 | –
C=CC(=O)N1CCC(N(C)c2nc(OC[C@@]34CCCN3C[C@H](F)C4)nc3cc(-c4ccc(F)c5sc(N)c(C#N)c45)c(C#N)cc23)[C@H]1CC (stereo partly shown) [Compound 7] | A (percent of modification ≥70%) | A (percent of modification ≥70%) | A (percent of modification ≥70%) | < 100 | –
C=CC(=O)N1CC[C@@H](N(C)c2nc(OC[C@@H]3CCCN3C)nc3c(F)c(-c4ccc(F)c5sc(N)c(C#N)c45)c(C(F)(F)F)cc23)[C@H]1C (atropisomer, axis not shown) [Compound 132] | D (percent of modification <10%) | D (percent of modification <10%) | D (percent of modification <10%) | – | > 1000
C=CC(=O)N1CC[C@@H](N(C)c2nc(OC[C@@H]3C[C@@H](F)CN3CC)nc3c(F)c(-c4ccc(F)c5sc(N)c(C#N)c45)c(C(F)(F)F)cc23)[C@H]1C [Compound 107] | A (percent of modification ≥70%) | A (percent of modification ≥70%) | A (percent of modification ≥70%) | < 100 | –
C=CC(=O)N1CC[C@@H](N(CC)c2nc(OC[C@@H]3CCCN3C)nc3c(F)c(-c4ccc(F)c5sc(N)c(C#N)c45)ccc23)[C@H]1C [Compound 141] | A (percent of modification ≥70%) | A (percent of modification ≥70%) | A (percent of modification ≥70%) | < 100 | –
C=CC(=O)N1CC[C@@H](N(C)c2nc(OC[C@@]34CCCN3C[C@H](F)C4)nc3cc(-c4nc(N)cc(C)c4C(F)(F)F)c(F)cc23)[C@H]1C [Compound 110] | A (percent of modification ≥70%) | B (50≤percent of modification <70%) | A (percent of modification ≥70%) | 100 to 1000 | –
C=CC(=O)N1CC[C@@H](N(C)c2nc(OC[C@@]34CCCN3C[C@H](F)C4)nc3c(F)c(-c4nc(N)cc(C)c4C(F)(F)F)ccc23)[C@H]1C [Compound 115] | A (percent of modification ≥70%) | A (percent of modification ≥70%) | A (percent of modification ≥70%) | 100 to 1000 | –
C=CC(=O)N1CC[C@@H](N(C)c2nc(OC[C@@H]3CC4(CC4)CN3C)nc3c(F)c(-c4ccc(F)c5sc(N)c(C#N)c45)c(C(F)(F)F)cc23)[C@@H]1C (atropisomer, axis not shown) [Compound 111] | A (percent of modification ≥70%) | A (percent of modification ≥70%) | A (percent of modification ≥70%) | < 100 | –
C=CC(=O)N1C[C@H](N(C)c2nc(OC[C@@]34CCCN3C[C@H](F)C4)nc3c(F)c(-c4ccc(F)c5sc(N)c(C#N)c45)c(C(F)(F)F)cc23)C[C@H]1C (atropisomer, axis not shown) [Compound 176] | A (percent of modification ≥70%) | A (percent of modification ≥70%) | A (percent of modification ≥70%) | < 100 | –
